Source: patent US11834434B2, “Substituted 2-heteroaryloxypyridines and salts thereof and their use as herbicidal agents” (Bayer Aktiengesellschaft, priority 2018, dated 2023)

Experiments:
Assay type in all cases: in vivo
Setaria viridis (SETVI) = experiment: Pre-emergence herbicidal action against Setaria viridis; settings: 1280 g/ha; scored visually after about 3 weeks vs untreated controls; 100% = plants have died, 0% = like control plants
Excerpt: (§1) Seeds of mono- and dicotyledonous weed plants were placed in plastic pots in sandy loam soil (doubly sown with in each case one species of mono- or dicotyledonous weed plants per pot) and covered with soil. The compounds of the invention, formulated in the form of wettable powders (WP) or as emulsion concentrates (EC), were then applied onto the surface of the covering soil as aqueous suspension or emulsion with addition of 0.5% additive at a water application rate of 600 liters per hectare (converted). After the treatment, the pots were placed in a greenhouse and kept under good growth conditions for the test plants. After about 3 weeks, the effect of the preparations was scored visually in comparison with untreated controls as percentages. For example, 100% activity=the plants have died, 0% activity=like control plants. Tables C1 to C8 below show the effects of selected compounds of the general formula (I) according to Table 1 on various harmful plants and an application rate corresponding to 1280 g/ha, which were obtained by the experimental procedure mentioned above.

Poa annua (POAAN) [1] = experiment: Post-emergence herbicidal action against Poa annua; settings: 1280 g/ha; rated visually after about 3 weeks vs untreated controls; 100% = plants have died, 0% = like control plants
Protocol: (§2) Seeds of mono- and dicotyledonous weed plants were placed in plastic pots in sandy loam soil (doubly sown with in each case one species of mono- or dicotyledonous weed plants per pot), covered with soil and cultivated in a greenhouse under controlled growth conditions. 2 to 3 weeks after sowing, the test plants were treated at the one-leaf stage. The compounds of the invention, formulated in the form of wettable powders (WP) or as emulsion concentrates (EC), were applied onto the green parts of the plants as aqueous suspension or emulsion with addition of 0.5% additive at a water application rate of 600 liters per hectare (converted). After the test plants had been kept in the greenhouse under optimum growth conditions for about 3 weeks, the activity of the preparations was rated visually in comparison to untreated controls. For example, 100% activity=the plants have died, 0% activity=like control plants. Tables B1 to B8 below show the effects of selected compounds of the general formula (I) according to Table 1 on various harmful plants and an application rate corresponding to 1280 g/ha, which were obtained by the experimental procedure mentioned above.

Stellaria media (STEME) [2] = experiment: Post-emergence herbicidal action against Stellaria media; settings: 1280 g/ha; rated visually after about 3 weeks vs untreated controls; 100% = plants have died, 0% = like control plants
Protocol: as §2

Stellaria media (STEME) [3] = experiment: Pre-emergence herbicidal action against Stellaria media; settings: 1280 g/ha; scored visually after about 3 weeks vs untreated controls; 100% = plants have died, 0% = like control plants
Excerpt: as §1

[4] = test system: Matricaria inodora (MATIN); experiment: Pre-emergence herbicidal action against Matricaria inodora; settings: 1280 g/ha; scored visually after about 3 weeks vs untreated controls; 100% = plants have died, 0% = like control plants
Excerpt: as §1

Lolium rigidum (LOLRI) = experiment: Pre-emergence herbicidal action against Lolium rigidum; settings: 1280 g/ha; scored visually after about 3 weeks vs untreated controls; 100% = plants have died, 0% = like control plants
Excerpt: as §1

[5] = test system: Amaranthus retroflexus (AMARE); experiment: Post-emergence herbicidal action against Amaranthus retroflexus; settings: 1280 g/ha; rated visually after about 3 weeks vs untreated controls; 100% = plants have died, 0% = like control plants
Protocol: as §2

[6] = test system: Amaranthus retroflexus (AMARE); experiment: Pre-emergence herbicidal action against Amaranthus retroflexus; settings: 1280 g/ha; scored visually after about 3 weeks vs untreated controls; 100% = plants have died, 0% = like control plants
Excerpt: as §1

Poa annua (POAAN) [7] = experiment: Pre-emergence herbicidal action against Poa annua; settings: 1280 g/ha; scored visually after about 3 weeks vs untreated controls; 100% = plants have died, 0% = like control plants
Excerpt: as §1

[8] = test system: Abutilon theophrasti (ABUTH); experiment: Post-emergence herbicidal action against Abutilon theophrasti; settings: 1280 g/ha; rated visually after about 3 weeks vs untreated controls; 100% = plants have died, 0% = like control plants
Protocol: as §2

[9] = test system: Abutilon theophrasti (ABUTH); experiment: Pre-emergence herbicidal action against Abutilon theophrasti; settings: 1280 g/ha; scored visually after about 3 weeks vs untreated controls; 100% = plants have died, 0% = like control plants
Excerpt: as §1

[10] = test system: Echinochloa crus-galli (ECHCG); experiment: Pre-emergence herbicidal action against Echinochloa crus-galli; settings: 1280 g/ha; scored visually after about 3 weeks vs untreated controls; 100% = plants have died, 0% = like control plants
Excerpt: as §1

Structure (SMILES) | Pre-emergence action against Setaria viridis (SETVI) (Setaria viridis (SETVI)) | Post-emergence action against Poa annua (POAAN) (Poa annua (POAAN) [1]) | Post-emergence action against Stellaria media (STEME) (Stellaria media (STEME) [2]) | Pre-emergence action against Stellaria media (STEME) (Stellaria media (STEME) [3]) | Pre-emergence action against Matricaria inodora (MATIN) [4] | Pre-emergence action against Lolium rigidum (LOLRI) (Lolium rigidum (LOLRI)) | Post-emergence action against Amaranthus retroflexus (AMARE) [5] | Pre-emergence action against Amaranthus retroflexus (AMARE) [6] | Pre-emergence action against Poa annua (POAAN) (Poa annua (POAAN) [7]) | Post-emergence action against Abutilon theophrasti (ABUTH) [8] | Pre-emergence action against Abutilon theophrasti (ABUTH) [9] | Pre-emergence action against Echinochloa crus-galli (ECHCG) [10]
COc1cc(Cc2ccc(C)nc2Oc2ncc(Cl)cn2)ccc1F [Example I-406] | 100% | 90% | 90% | 100% | 100% | 90% | 90% | 90% | 100% |  |  | 
Fc1cnc(Oc2ncccc2Sc2ccc(F)cc2F)nc1 [Example I-156] | 90% |  | 100% | 100% | 90% |  | 100% | 100% | 100% | 100% |  | 
COc1cc(Oc2ccc(C)nc2Oc2ncc(F)cn2)ccc1F [Example I-520] | 90% |  |  | 100% | 100% | 100% | 100% | 100% | 100% | 90% | 90% | 
Cc1ccc(Oc2ccccc2)c(Oc2ncccn2)n1 [Example I-522] | 100% | 90% | 100% | 100% | 90% | 90% | 100% | 90% | 100% |  | 100% | 100%
COc1cc(Cc2ccc(C)nc2Oc2ncc(F)cn2)ccc1F [Example I-439] | 100% |  | 90% | 100% |  |  |  | 90% | 100% |  | 100% | 100%
Cc1ccc(Cc2ccccc2)c(Oc2ncccn2)n1 [Example I-441] | 100% |  | 100% | 100% | 100% | 90% | 100% | 100% | 100% |  | 100% | 100%
Cc1ccc(Cc2ccc(F)cc2F)c(Oc2ncc(Cl)cn2)n1 [Example I-400] | 100% |  |  | 100% | 90% |  |  | 90% | 100% |  |  | 
Cc1ccc(Cc2ccc(C)nc2Oc2ncc(F)cn2)cc1 [Example I-438] |  |  | 90% | 100% | 100% |  | 90% |  |  |  | 90% | 
Cc1ccc(Cc2ccccc2)c(Oc2ncc(F)cn2)n1 [Example I-430] | 100% | 90% | 100% | 100% | 100% | 90% | 90% | 100% | 100% |  | 100% | 100%
